The subject of the experiment is IKKα protein. Kind of experiment: TPA-induced activation of IKKα (western blot). In kind it is in vivo, mouse. The conditions noted are these: highest dose of Lupeol, 12 h time point. The procedure:
FIG. 6. Inhibitory effect of Lupeol on TPA-induced activation of IKKα, and phosphorylation and degradation of IκBα in CD-1 mice: At different times after treatment, the animals were sacrificed, epidermal cytosolic was prepared, and protein expression was determined. Equal loading was confirmed by stripping the immunoblot and reprobing it for β-actin. The immunoblots shown here are representative of three independent experiments with similar results. The values above each lane indicate relative density of the band normalized to β-actin.
The animals were shaved on the dorsal side of the skin, divided into four groups and treated topically on the shaved area with either 0.4 ml vehicle (acetone), or TPA (3.2 nmol/0.4 ml acetone/animal, v/v), or Lupeol (1 or 2 mg/0.2 ml acetone/animal, w/v) followed 30 min later with TPA (3.2 nmol/0.2 ml acetone/animal). […]
Epidermis from the whole skin was separated as described earlier (Katiyar et al., 1999) and was homogenized in ice-cold lysis buffer [50 mM Tris-HCl, 150 mM NaCl, 1 mM EGTA, 1 mM EDTA, 20 mM NaF, 100 mM Na3VO4, 0.5% NP-40, 1% Triton X-100, 1 mM PMSF (pH 7.4)] with freshly added protease inhibitor cocktail, Protease Inhibitor Cocktail Set III (Calbiochem, La Jolla, Calif., USA). […] The protein content in the lysates was measured by DC BioRad assay (BioRad Laboratories, Hercules, Calif.) as per the manufacturer's protocol. […]

On to `C=C(C)[C@@H]1CC[C@]2(C)CC[C@]3(C)[C@H](CC[C@@H]4[C@@]5(C)CC[C@H](O)C(C)(C)[C@@H]5CC[C@]43C)[C@@H]12` [Lupeol, Lup-20(29)-en-3β-ol], for which the “inhibition in TPA induced activation of IKKα protein” value is given as roughly 95%.

The record behind these values is patent publication US8618082B2, “Lupeol anti-tumor agent and uses thereof” (Wisconsin Alumni Research Foundation, priority 2004, dated 2013).
